Data reported in patent US4312948A, “Enzymic microbiological process for producing optically active aminoacids starting from hydantoins and/or racemic carbamoyl derivatives” (priority 1978, dated 1982).

What follows are compounds tested against T1, carbamoylytic enzyme (Enzyme II, carbamoylase) (Agrobacterium radiobacter, UniProt Q44185) (assay: enzymic activity test of acetonic powder of Agrobacterium sp. cells on N-carbamoyl aminoacid substrates (NH4+ by phenol-hypochlorite method)). Settings: 20 mM substrate in pyrophosphate buffer 0.1 M pH 7.7, acetonic powder, 40° C., 1-hour incubation, under nitrogen.
T1 construct: endogenous in cells; host or cells: Agrobacterium sp. cells, acetone-dried powder (crude, enzyme not purified)
T1 sequence (Q44185 whole entry): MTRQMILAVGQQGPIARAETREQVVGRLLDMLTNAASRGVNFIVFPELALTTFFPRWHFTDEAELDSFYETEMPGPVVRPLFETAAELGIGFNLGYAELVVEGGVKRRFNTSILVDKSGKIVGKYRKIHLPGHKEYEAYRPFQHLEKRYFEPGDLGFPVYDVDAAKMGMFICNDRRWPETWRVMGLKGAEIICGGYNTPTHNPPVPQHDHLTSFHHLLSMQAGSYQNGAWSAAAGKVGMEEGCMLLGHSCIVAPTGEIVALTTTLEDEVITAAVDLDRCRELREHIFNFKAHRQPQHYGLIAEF
Type: biochemical
Procedure: Cells of Agrobacterium sp. strain were prepared as described in Example 1. A few grams of moist cellule slurry was slurried in pyrophosphate buffer (0.1 M pH 7.7) and subjected to acetonic treatment in the cold.
After removing acetone by filtration, the acetonic preparation thus obtained was dried to constant weight in vacuum at 35° C. The dried material was homogenized in a mortar and powder thus obtained was used for the enzymic activity tests.
The caetonic powder was assayed on the following substrates: N-carbamoyl-D-(-)-alanine, N-carbamoyl-D(-) valine, N-carbamoyl-D-(-)glutamic acid, N-carbamoyl-D(-)-parahydroxyphenylglycine,N-carbamoyl-D(-)-paramethoxyphenylglycine, N-carbamoyl-D-(-)-phenylglycine, N-carbamoyl-L(+)-phenylglycine, N-carbamoyl-D(-)-phenylalanine, N-carbamoyl-L(+)-glutamic acid and N-carbamoyl-D(-) (2-thienyl)-glycine.
Thus, 20 mM solution were prepared of each carbamoyl derivative in pyrophosphate buffer 0.1 M pH 7.7, and, to 10 mls of each solution there was added an adequate quantity of acetonic powder, equal for each substrate.
The incubation was carried out under a UPP nitrogen blanket with stirring at a temperature of 40° C. After 1-hour incubation, the quantity of the produced aminoacid was measured by determining in the reaction mixtures the concentration of the NH4^+ ion which has been reached, with the phenol-hypochlorite method indicated in Example 2.

Row | SMILES | % ACTIVITY (hydrolytic activity, assuming as 100 the activity against N-carbamoyl-D(-)-parahydroxyphenylglycine)
1 | C[C@@H](NC(N)=O)C(=O)O [N-carbamoyl-D-(-)-alanine] | 57.5%
2 | NC(=O)N[C@@H](C(=O)O)c1ccccc1 [N-carbamoyl-D(-)-phenylglycine] | 81.25%
3 | COc1ccc([C@@H](NC(N)=O)C(=O)O)cc1 [N-carbamoyl-D(-)-paramethoxyphenylglycine] | 40.0%
4 | NC(=O)N[C@H](Cc1ccccc1)C(=O)O [N-carbamoyl-D(-)-phenylalanine] | 50.0%
5 | CC(C)[C@@H](NC(N)=O)C(=O)O [N-carbamoyl-D(-)-valine] | 34.25%
6 | NC(=O)N[C@H](CCC(=O)O)C(=O)O [N-carbamoyl-D(-)glutamic acid] | 21.7%
7 | NC(=O)N[C@@H](CCC(=O)O)C(=O)O [N-carbamoyl-L(+)glutamic acid] | 0%
8 | NC(=O)N[C@@H](C(=O)O)c1ccc(O)cc1 [N-carbamoyl-D(-)-parahydroxyphenylglycine] | 100.0%
9 | NC(=O)N[C@H](C(=O)O)c1ccccc1 [N-carbamoyl-L(+)-phenylglycine] | 0%
10 | NC(=O)N[C@@H](C(=O)O)c1cccs1 [N-carbamoyl-D(-)-(2-thienyl)glycine] | 40.7%

Same assay, conditions: 20 mM substrate, pyrophosphate buffer 0.1 M pH 7.7, 40° C., 1-hour incubation

Row | SMILES | activity of the carbamoylytic enzyme, ranking among substrates
11 | NC(=O)N[C@@H](C(=O)O)c1ccc(O)cc1 [N-carbamoyl-D(-)-parahydroxyphenylglycine] | highest activity
